This is an account of results in patent US9192644B2, “Bioavailable curcuminoid formulations for treating Alzheimer's disease and other age-related disorders” (The Regents of the University of California, priority 2006, dated 2015).

Molecules are shown by their SMILES. Like-named read-outs stand apart in the source and are kept apart here. Marks after values point to notes of the source that are not given here.

One series is described as follows: in vivo. As to conditions: mouse.
Series [1] is described as follows: Plasma levels after chronic Curc or TC administration in diet (500 ppm chow, 4 months). The format is in vivo, APPsw mice. As to conditions: for Plasma (μM) / concentration at 4 months: APPsw mice, 500 mg/kg chow (2.5 mg/day), 4 months; for concentration at 4 months: mouse, plasma, oral.
For series [2] the following is noted: 4 hr after administration.
Series [3] is classed as physicochemical. The source says:
Therefore, providing a curcuminoid-to-antioxidant ratio of about 10:1 or higher should be sufficient to prevent hydrolysis during absorption, and enhance bioavailability. […] Thus, additional antioxidant need not add prohibitively to the bulk of a formulation.

The test system of another series is IL-1β. The series is described as follows: Inhibition of pro-inflammatory IL-1β in brain after curcumin administration. In kind it is in vivo. The note with it: mice, plasma levels 0.25-0.5 micromolar.
Series [4] concerns active c-jun kinase (p)JNK. As to the kind of experiment: Inhibition of active c-jun kinase in brain after curcumin administration. In kind it is in vivo. As to conditions: mice, plasma levels 0.25-0.5 micromolar.
The subject of a further series is iNOS. As to the kind of experiment: Inhibition of iNOS in brain after curcumin administration. The note with it: mice, plasma levels 0.25-0.5 micromolar. In kind it is in vivo.
Series [5] is described as follows: Conversion of curcumin to tetrahydrocurcumin in plasma. In kind it is in vivo.
The subject of a further series is amyloid accumulation. As to the kind of experiment: Amyloid accumulation in vivo in APP Tg mice.

As to `COc1cc(CCC(=O)CC(=O)CCc2ccc(O)c(OC)c2)ccc1O` [TC, tetrahydrocurcumin], the concentration at 4 hr is 971 ± 92 ng/mL in “in vivo” (73.5 μg) and 847 ± 19 ng/mL in the series “in vivo” (ip, 147 μg). The “Plasma (μM)” value is “(0.734 μM)” in series [1]; “(2.639 μM)” in series [2] (i.m., dose 73.5 μg); “(2.302 μM)” in [2] (i.p., dose 147.0 μg). The same compound registered a concentration at 4 months in series [1] of 270 ± 3 ng/mL. In addition, the “plasma levels relative to curcumin” value in series [1] (same oral doses, our data and data in the literature) was 7-8 times. In addition, the “stability in aqueous solution” value in series [3] is “stable even at basic pH”. The “Brain (μg/10 mg protein)” value was 0.027 ± 0.002^a μg/10 mg protein (gav, dose 147.0 μg, 4 hr after administration); 0.223 ± 0.023^c μg/10 mg protein (i.m., dose 73.5 μg, 4 hr after administration); 0.076 ± 0.003^b μg/10 mg protein (i.p., dose 147.0 μg, 4 hr after administration).

Turning to `COc1cc(/C=C/C(=O)CC(=O)/C=C/c2ccc(O)c(OC)c2)ccc1O` [Curc, curcumin], the concentration at 4 hr in the series “in vivo” is 250 to 500 nM. Further, the “inhibition of pro-inflammatory IL-1β” value with IL-1β is given as ~50%. Moreover, the “inhibition of active c-jun kinase (p)JNK” value in [4] is given as ~50%. In series [1], the “Plasma (μM)” value was “(0.095 μM)” and the concentration at 4 months was 35 ± 14 ng/mL. In addition, in the series with iNOS, the “inhibition of iNOS” value is ~50%. Besides, the “curcuminoids in plasma naturally converted to tetrahydrocurcumin” value in series [5] came to 25%. In addition, the “stability in aqueous solution” value in series [3] is recorded as “unstable in aqueous solutions above pH 7.0”. Moreover, in the series with amyloid accumulation, the amyloid accumulation result is “effectively reduces”. Also, the “Brain (μg/10 mg protein)” value (mouse, in vivo, ip, 4 hr) is recorded as 0.074 ± 0.003^b μg/10 mg protein.

For `O=C1O[C@H]([C@@H](O)CO)C(O)=C1O` [ascorbic acid], the retarding curcumin hydrolysis entry in series [3] (25 micromolar curcumin, PBS pH 7.4, absorbance at 426 nm (FIG. 2)) was “very effective”. The “retarding hydrolysis of curcumin” value is on record as “very effective” in [3] (curcumin-to-ascorbic acid ratio of 1:1 or 2:1, absorbance at 450 and 405 nm (FIGS. 3 and 4)); “somewhat diminished effectiveness” in series [3] (curcumin-to-ascorbic acid ratios higher than 2:1 (FIGS. 3 and 4)).
